This is an account of results in paper PMC4476725 (PLoS Pathogens, 2015).

Where two headings read alike, the source gives them in different places. Where only a bound is given, the exact number is not on record here.

For orientation: IC50 means the point on the concentration scale where inhibition reaches its midpoint. Usually inhibition stands for how much of the control response was suppressed. Higher therefore signals a strong effect.

Assay [1] addresses QUAD RNP complex (Human respiratory syncytial virus A, UniProt P28887, A789V/I796V/L795I/M628L). The assay is classed as biochemical.
The target in assay [2] is PIV-1 polymerase (Human respirovirus 1, UniProt Q8QT26). Briefly: biochemical. The following applies: Parainfluenza virus type-1 polymerase.
In assay [3] the target is T1, wild-type RSV L-P RNA polymerase complex (Human respiratory syncytial virus A, UniProt P28887).
T1 construct: made in house; host or cells: insect cells
The assay is classed as biochemical. The conditions noted are these: Fig 5A.

Assay [4] concerns the target human mitochondrial RNA polymerase (Homo sapiens, UniProt O00411). Briefly: DdRp assay with human mitochondrial RNA polymerase, single turnover. The assay is classed as biochemical. The following applies: 100 μM of each NTP.
In assay [5] the target is RSV RNP complex (Human respiratory syncytial virus A, UniProt P28887). Briefly: biochemical. The assay is classed as biochemical.
For assay [6], the target named is RSV polymerase QUAD mutant (Human respiratory syncytial virus A, UniProt P28887, A789V/I796V/L795I/M628L). Briefly: Single nucleotide incorporation by recombinant RSV L-P polymerase, QUAD mutant. The assay is classed as biochemical. The following applies: recombinant L-P enzymes.
Assay [7] deals with HCV polymerase (Hepatitis C virus genotype 1b, UniProt Q9WMX2). The experiment in a line: HCV polymerase inhibition assay. The assay is classed as biochemical.
Assay [8] concerns the target IAV polymerase (Influenza A virus, UniProt P03431). The experiment in a line: IAV polymerase gel-based assay. The assay is classed as biochemical.

human mitochondrial RNA polymerase, sequence (O00411 42-1230): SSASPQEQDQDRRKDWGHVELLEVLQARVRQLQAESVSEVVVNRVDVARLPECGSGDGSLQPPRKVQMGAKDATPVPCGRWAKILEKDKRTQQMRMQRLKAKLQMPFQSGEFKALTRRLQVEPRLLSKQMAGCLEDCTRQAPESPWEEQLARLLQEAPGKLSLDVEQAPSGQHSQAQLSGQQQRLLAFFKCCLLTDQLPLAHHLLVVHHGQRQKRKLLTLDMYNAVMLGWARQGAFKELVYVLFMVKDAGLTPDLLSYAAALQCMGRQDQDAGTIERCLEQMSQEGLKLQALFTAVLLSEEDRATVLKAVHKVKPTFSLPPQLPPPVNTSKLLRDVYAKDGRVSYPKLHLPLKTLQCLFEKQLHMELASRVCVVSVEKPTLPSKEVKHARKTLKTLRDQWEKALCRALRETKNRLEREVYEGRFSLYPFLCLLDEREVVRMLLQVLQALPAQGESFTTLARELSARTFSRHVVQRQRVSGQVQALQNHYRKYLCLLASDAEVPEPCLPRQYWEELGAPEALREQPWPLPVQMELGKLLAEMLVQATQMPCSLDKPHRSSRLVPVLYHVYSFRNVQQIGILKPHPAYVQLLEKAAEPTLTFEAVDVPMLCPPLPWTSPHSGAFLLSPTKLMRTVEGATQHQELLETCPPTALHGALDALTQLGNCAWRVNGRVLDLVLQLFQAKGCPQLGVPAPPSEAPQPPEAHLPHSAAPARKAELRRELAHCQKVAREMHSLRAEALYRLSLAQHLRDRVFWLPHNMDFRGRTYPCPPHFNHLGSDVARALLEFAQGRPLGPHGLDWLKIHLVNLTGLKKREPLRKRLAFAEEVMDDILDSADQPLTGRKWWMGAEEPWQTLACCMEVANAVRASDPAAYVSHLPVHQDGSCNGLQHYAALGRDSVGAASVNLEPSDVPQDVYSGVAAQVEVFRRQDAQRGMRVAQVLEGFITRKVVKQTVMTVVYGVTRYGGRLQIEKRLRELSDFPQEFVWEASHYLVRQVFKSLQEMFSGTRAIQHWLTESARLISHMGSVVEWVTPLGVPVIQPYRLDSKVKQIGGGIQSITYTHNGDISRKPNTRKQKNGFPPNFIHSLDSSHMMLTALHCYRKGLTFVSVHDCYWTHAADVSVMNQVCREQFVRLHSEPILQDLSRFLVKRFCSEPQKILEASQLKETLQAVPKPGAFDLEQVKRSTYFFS

For the molecule `Nc1ccn([C@@H]2O[C@](CCl)(COP(=O)(O)OP(=O)(O)OP(=O)(O)O)[C@@H](O)[C@H]2F)c(=O)n1` [ALS-8112-TP, 2'-Fluoro-4'-Chloromethyl-Cytidine Triphosphate], the “inhibition of RdRp activity of the QUAD RNP complex” value in assay [1] came out at 57%. Also, the “loss in inhibition potency compared to the wild-type protein” value in assay [1] came to 145 fold. The IC50 in assay [2] is 2300 nM; in assay [7] (Hepatitis C virus polymerase, read-out: IC50), above 33 µM; in assay [7] (second symbol of RSV / HCV, read-out: HCV polymerase inhibition class (IC50)) it was above 10 µM; in assay [8] (Influenza virus polymerase, based on a single 100 μM concentration) it was above 100 µM. Besides, in assay [3], the “substrate and chain termination profile with recombinant RSV polymerase (in words)” value was “both substrates and chain terminators”. Further, in assay [4], the “recognition as substrate by human mitochondrial RNA polymerase (in words)” value is “not recognized as a substrate”. In addition, the “inhibition of RSV RNP complex (in words)” value in assay [5] (Fig 5B) is listed as “efficiently inhibit RSV”. Further, in assay [5] (NTP competition, 1 or 100 μM NTP, 30 μM inhibitor), the “mode of inhibition of RSV RNP complex” value is recorded as “competitive inhibitor of cytidine monophosphate (CMP) incorporation”. For the same molecule, the “viral RNA transcription activity inhibited (in words)” value in assay [5] (crude RNP complex from virus-infected cells) is recorded as “inhibited”. In assay [6], the “increase in discrimination, QUAD vs WT (resistance level)” value came out at 4.6 fold. Further, the “inhibition of HCV polymerase (in words)” value in assay [7] (Fig 5B) was “not HCV polymerase”. Further, the inhibition at 100 µM in assay [8] (at 100 μM) worked out at 20.5%.
